From patent US6933392B2, “Hydroxy substituted fused naphthyl-azoles and fused indeno-azoles and their use for the treatment of glaucoma” (Alcon, Inc., priority 2001, dated 2005) come the findings set out here.

Counter-ions that a name gives are not always drawn. Like-named read-outs stand apart in the source and are kept apart here.

The target in assay [1] is T1, 5-HT2 receptors in A7r5 rat vascular smooth muscle cells (Rattus norvegicus, UniProt P14842).
T1 construct: endogenous in cells; host or cells: A7r5 rat vascular smooth muscle cells
The assay can be described thus: 5-HT2 functional assay: [Ca2+]i mobilization (FLIPR). Particulars: for Emax: read-out: Efficacy (Emax, %). Type of assay: cell-based. The protocol:
5-HT2 Functional Assay: [Ca^2+]i Mobilization
The receptor-mediated mobilization on intracellular calcium ([Ca^2+]i) was studied using the Fluorescence Imaging Plate Reader (FLIPR) instrument. Rat vascular smooth muscle cells, A7r5, were grown in a normal media of DMEM/10% FBS and 10 μg/mL gentamycin. Confluent cell monolayers were trypsinized, pelleted, and re-suspended in normal media. Cells were seeded in a 50 μL volume at a density of 20,000 cells/well in a black wall, 96-well tissue culture plate and grown for 2 days.
On the day of the experiment, one vial of FLIPR Calcium Assay Kit dye was re-suspended in 50 mL of a FLIPR buffer consisting of Hank's Balanced Salt Solution (HBSS), 20 mM HEPES, and 2.5 mM probenecid, pH 7.4. Cells were loaded with the calcium-sensitive dye by addition of an equal volume (50 μL) to each well of the 96-well plate and incubated with dye for 1 h at 23° C.
Compounds were diluted 1:50 in 20% DMSO/20% ethanol. For “hit” screening, compounds were further diluted 1:10 in FLIPR buffer and tested at a final concentration of 10 μM.
The compound plate and cell plate were placed in the FLIPR instrument. At the beginning of an experimental run, a signal test was performed to check the basal fluorescence signal from the dye-loaded cells and the uniformity of the signal across the plate. The basal fluorescence was adjusted between 8000-12000 counts by modifying the exposure time, the camera F-stop, or the laser power. Instrument settings for a typical assay were the following: laser power 0.3-0.6 W, camera F-stop F/2, and exposure time 0.4 sec. An aliquot (25 μL) of the test compound was added to the existing 100 μL dye-loaded cells at a dispensing speed of 50 μL/sec. Fluorescence data were collected in real-time at 1.0 sec intervals for the first 60 secs and at 6.0 sec intervals for an additional 120 secs.

Assay [2] deals with brain 5-HT2 receptors (Rattus norvegicus, UniProt P14842). The assay can be described thus: 5-HT2 receptor binding assay ([125I]DOI competition). Particulars: competition for [125I]DOI binding, rat or human cerebral cortex homogenates. The method, then: 5-HT2 Receptor Binding Assay
The assay mixture is incubated for 1 hour at 23° C. in polypropylene tubes and the assays terminated by rapid vacuum filtration over Whatman GF/B glass fiber filters previously soaked in 0.3% polyethyleneimine using ice-cold buffer. Test compounds (at different concentrations) are substituted for methiothepin. Filter-bound radioactivity is determined by scintillation spectrometry on a beta counter. The data are analyzed using a non-linear, iterative curve-fitting computer program [Trends Pharmacol. Sci., 16, 413 (1995)] to determine the compound affinity parameter. The concentration of the compound needed to inhibit the [^125I]DOI binding by 50% of the maximum is termed the IC50 or Ki value.

Where [3] appears, read: A7r5 cells, FLIPR, percentage of maximum 5-HT-induced response.
The mark [4] stands for this setting: A7r5 cells, FLIPR, read-out: EC50, nM (5-HT2 functional, [Ca2+]i mobilization).

As usually defined, the Emax is the greatest response seen or fitted, relative to the assay's reference. Broadly, the EC50 is the midpoint of the concentration-response curve. In general, IC50 refers to the concentration that inhibits the measured activity by half. Higher therefore signals lower potency.

T1 sequence (P14842 whole entry): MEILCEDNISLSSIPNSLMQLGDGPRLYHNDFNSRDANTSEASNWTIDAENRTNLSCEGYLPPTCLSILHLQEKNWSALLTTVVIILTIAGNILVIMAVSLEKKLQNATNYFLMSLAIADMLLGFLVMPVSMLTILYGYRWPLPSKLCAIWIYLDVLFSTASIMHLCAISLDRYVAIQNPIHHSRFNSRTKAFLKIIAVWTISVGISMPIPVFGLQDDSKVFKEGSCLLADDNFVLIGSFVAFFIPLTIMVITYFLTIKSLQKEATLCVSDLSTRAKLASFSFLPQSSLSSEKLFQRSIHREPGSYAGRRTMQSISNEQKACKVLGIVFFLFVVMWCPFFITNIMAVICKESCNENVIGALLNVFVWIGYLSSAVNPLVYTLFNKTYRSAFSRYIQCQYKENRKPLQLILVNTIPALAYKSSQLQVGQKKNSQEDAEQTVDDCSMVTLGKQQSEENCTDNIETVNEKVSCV
Sequence of brain 5-HT2 receptors (P14842 whole entry): as above

As for `CC(N)Cn1ncc2c1-c1cc(O)ccc1CC2` (stereo not shown) [Example 2, 1-(2-Aminopropyl)-4,5-dihydro-1H-benzo[g]indazol-8-ol Dihydrochloride], in assay [1] (setting [3]), the maximal effect (Emax) came to 46%. The EC50 in assay [1] (setting [4]) worked out at 103 nM.
`CC(N)Cn1ncc2ccc3cc(O)ccc3c21` (stereo not shown) [Example 4, 1-(2-Aminopropyl)-2H-benzo[g]indazol-7-ol] returned an EC50 in assay [1] of 211 nM. Besides, the maximal response (Emax) in assay [1] (setting [3]) amounted to 79%.
Turning to `CC(N)Cn1ncc2c1-c1ccc(O)cc1C2` (stereo not shown) [Example 5, 1-(2-Aminopropyl)-1,4-dihydro-indeno[1,2-c]pyrazol-6-ol], the Emax in assay [1] (setting [3]) stood at 64%. Also, the concentration for a half-maximal effect (EC50) in assay [1] (setting [4]) turned out to be 328 nM.
In the case of `NCCc1c[nH]c2ccc(O)cc12` [Example 5-HT, 5-Hydroxytryptamine, reference compound], the maximal response (Emax) in assay [1] (setting [3]) came to 107%.
Turning to `COc1cc(CC(C)N)c(OC)cc1I` (stereo not shown) [DOI, reference compound], in assay [2], the half-inhibitory concentration (IC50) was 0.33 nM. For the same compound, in assay [1] (setting [3]), the “Efficacy (Emax, %)” value was 31%. For the same compound, the EC50 in assay [1] (setting [4]) worked out at 30.2 nM.
